From article PMC8391236, “Effect of Pterostilbene, a Natural Derivative of Resveratrol, in the Treatment of Colorectal Cancer through Top1/Tdp1-Mediated DNA Repair Pathway” (Cancers, 2021)

Legend:
CL187 = test: Cell viability assay (CCK-8); format: cell-based, Human
Experimental: (§1) PTE or RE were dissolved in DMSO and diluted with culture medium to 1–100 μM. The final concentration of DMSO was less than 0.1%, and 0.1% DMSO as negative control. CPT, as Top1 inhibitor, was diluted to 0.5 μM [36, 37], and FM, as Tdp1 inhibitor was diluted to 25 μM [38]. Exponentially growing cells were seeded in 96-well plates (5 × 10^3 cells/well) for 12 h. Various drugs were added separately and incubated for 24, 48, and 72 h. Cell viability was determined by CCK-8 (Beyotime Biotechnology, Shanghai, China) assay. […]
(§2) The drug concentration required for inhibiting cell proliferation by 50% (IC50) was determined by interpolation from dose-response curves.

COLO205 = test: Cell viability assay (CCK-8); format: cell-based, Human
Experimental: as §1, §2

HCT-116 = test: Cell viability assay (CCK-8); format: cell-based, Human
Experimental: as §1, §2

HCT-8 = test: Cell viability assay (CCK-8); format: cell-based, Human
Experimental: as §1, §2

LoVo = test: Cell viability assay (CCK-8); format: cell-based, Human
Experimental: as §1, §2

siRNA-Top1 CL187 cells = test: Cell viability of Top1-silenced cells; format: cell-based, Human
Experimental: (§3) PTE or RE were dissolved in DMSO and diluted with culture medium to 1–100 μM. The final concentration of DMSO was less than 0.1%, and 0.1% DMSO as negative control. […] Exponentially growing cells were seeded in 96-well plates (5 × 10^3 cells/well) for 12 h. Various drugs were added separately and incubated for 24, 48, and 72 h. Cell viability was determined by CCK-8 (Beyotime Biotechnology, Shanghai, China) assay.

siRNA-Tdp1 CL187 cells [1] = test: Cell viability of Tdp1-silenced cells; format: cell-based, Human
Experimental: as §3

CL187 cells [2] = test: Apoptosis by flow cytometry (Annexin V-FITC/PI); format: cell-based, Human; details: 48 h
Experimental: Exponentially growing CL187 cells were seeded in 6-well plates (1.2 × 10^6 cells/well) until a well was filled with cells. The RE or PTE at various concentrations were added separately into plate wells and incubated with cells for 48 h. The incubated cells were collected and treated by Annexin V-FITC/PI Apoptosis Detection Kit. The stained cells were analyzed with a flow cytometer (Becton-Dickinson, Franklin Lakes, NJ, USA), and data analyses were performed with BD Cell Quest^TM pro 6.0..

CL187 cells [3] = test: Cell cycle analysis by flow cytometry; format: cell-based, Human; details: 48 h, blank control 14.70%
Tdp1 mRNA = test: qPCR of Tdp1 mRNA in cells; format: cell-based, Human; details: 6 h
Experimental: CL187 cells were treated with different concentrations of RE and PTE for 6, 12, 24 h, collected, and added with TRIzol (Thermo Fisher Scientific, Waltham, MA, USA). RNA was precipitated by isopropyl alcohol and washed with 75% ethanol prepared from diethylpyrocarbonate (DEPC) water. The obtained total RNA was dissolved in DEPC water and reverse transcribed into cDNA by a Hifair Ⅲ 1st strand cDNA Synthesis SuperMix for qPCR Kit (Yeasen Biotech, Shanghai, China). The resultant cDNA was used as a template, and the primer sequences were (5′→3′): Top1: F: […], R: […]; Tdp1: F: ACCAGAGTTCAGGAAGAAG, R: TCATAGAGCAGCAGCATC. GAPDH: F: […], R: TCTTCCTCTTGTGCTCTTG. Transcription levels of Top1, Tdp1, and GAPDH genes were determined by qPCR. The qPCR was performed as follows: 95 °C for 10 min, 40 cycles of 95 °C for 10 s, and 60 °C for 30 s. The cycle threshold (Ct) value was determined, and the RQ value was calculated.

Top1 = test: Western blot of Top1 protein in cells; format: cell-based, Human; details: 6 h
Experimental: CL187 cells were treated with RE or PTE for 6 or 12 h, collected, and placed into lysis buffer (KeyGEN BioTECH, Nanjing, China). The total protein content in the cell lysates was measured using a BCA kit. Equivalent amount of total protein (30 μg) was loaded onto 10% SDS-PAGE gel. Electrophoresis was performed at 80 V for 25 min. After the sample went through concentrated gel, the voltage was adjusted to 120 V. Electrophoresis was stopped when the bromophenol blue band approached the bottom of the gel. After being transferred to PVDF membranes, the samples were incubated separately with 3 types of primary antibodies Top1, Tdp1, and P53 rabbit mAb (CST, Boston, MA, USA), followed by the incubation with secondary antibody goat anti-rabbit IgG (HRP)-conjugated (1:3000). ECL kit (New Cell and Molecular Biotech, Suzhou, China) was used for color development, and the images were collected by the gel imaging system (Tanon-5200, Shanghai, China).

siRNA-Tdp1 CL187 cells [4] = test: Cell viability of Tdp1-silenced cells; format: cell-based; details: Homo sapiens, 36 h, siRNA-Tdp1 CL187, 36 h

IC50 (COLO205; COLO205, 72 h): < 30 µM | IC50 (COLO205; COLO205, 72 h, listed as Pterostilbene): 13.6 ± 6.1 µM | IC50 (COLO205; Homo sapiens, COLO 205, 24 h, COLO205, 24 h): 44.4 ± 16.7 µM | IC50 (COLO205; Homo sapiens, COLO 205, 48 h, COLO205, 48 h): 24.5 ± 9.13 µM | IC50 (HCT-116; HCT-116, 72 h, listed as Pterostilbene): 21.4 ± 6.79 µM | IC50 (HCT-116; Homo sapiens, HCT-116, 24 h): 31.2 ± 10.2 µM | IC50 (HCT-116; Homo sapiens, HCT-116, 48 h): 15.4 ± 4.49 µM | IC50 (HCT-116; Homo sapiens, HCT-116, 72 h): < 30 µM | IC50 (HCT-8; HCT-8, 72 h, listed as Pterostilbene): 25 ± 6.62 µM | IC50 (HCT-8; Homo sapiens, HCT-8, 24 h): 29.9 ± 10.6 µM | IC50 (HCT-8; Homo sapiens, HCT-8, 48 h): 25.4 ± 8.25 µM | IC50 (HCT-8; Homo sapiens, HCT-8, 72 h): < 30 µM | IC50 (LoVo; 72 h): < 30 µM | IC50 (LoVo; 72 h, listed as Pterostilbene): 12 ± 4.01 µM | IC50 (LoVo; Homo sapiens, 24 h): 106 ± 28.6 µM | IC50 (LoVo; Homo sapiens, 48 h): 14.2 ± 4.84 µM
SMILES: COc1cc(/C=C/c2ccc(O)cc2)cc(OC)c1 [PTE, 3,5-dimethoxy-4′-hydroxy-trans-stilbene]
IC50 (CL187; CL187, 72 h): < 30 µM | IC50 (CL187; CL187, 72 h, listed as Pterostilbene): 14.4 ± 2.93 µM | IC50 (CL187; Homo sapiens, 24 h, CL187, 24 h): 24.2 ± 11.6 µM | IC50 (CL187; Homo sapiens, 48 h, CL187, 48 h): 13.8 ± 4.7 µM | IC50 (siRNA-Top1 CL187 cells; Homo sapiens, 24 h, siRNA-Top1 CL187, 24 h): 70 ± 16.2 µM | IC50 (siRNA-Top1 CL187 cells; Homo sapiens, 48 h, siRNA-Top1 CL187, 48 h): 31.9 ± 8.11 µM | IC50 (siRNA-Top1 CL187 cells; Homo sapiens, 72 h, siRNA-Top1 CL187, 72 h): 20.2 ± 4.1 µM | IC50 (siRNA-Top1 CL187 cells; siRNA-Top1 CL187, 72 h): ~20 µM | IC50 (siRNA-Tdp1 CL187 cells [1]; Homo sapiens, 24 h, siRNA-Tdp1 CL187, 24 h): 74.2 ± 21.8 µM | IC50 (siRNA-Tdp1 CL187 cells [1]; Homo sapiens, 48 h, siRNA-Tdp1 CL187, 48 h): 24.8 ± 4.62 µM | IC50 (siRNA-Tdp1 CL187 cells [1]; Homo sapiens, 72 h, siRNA-Tdp1 CL187, 72 h): 18.4 ± 3.78 µM | IC50 (siRNA-Tdp1 CL187 cells [1]; siRNA-Tdp1 CL187, 72 h): ~20 µM | apoptosis rate (early and late apoptotic cells) (CL187 cells [2]; CL187, 10 μM): 28.95% | apoptosis rate (early and late apoptotic cells) (CL187 cells [2]; CL187, 20 μM): 29.69% | apoptosis rate (early and late apoptotic cells) (CL187 cells [2]; CL187, 50 μM): 25.76% | proportion of G2/M-phase cells (CL187 cells [3]; CL187, 10 μM): 48.69% | proportion of G2/M-phase cells (CL187 cells [3]; CL187, 20 μM): 52.98% | proportion of G2/M-phase cells (CL187 cells [3]; CL187, 50 μM): 55.33% | Tdp1 mRNA expression (Tdp1 mRNA; Tdp1-over CL187 cells): did not change significantly | Tdp1 mRNA expression (Tdp1 mRNA; siRNA-Top1 CL187 cells): inhibited without obvious trend | Tdp1 mRNA expression (Tdp1 mRNA; wild-type CL187 cells): significantly inhibited | Top1 protein content (Top1; Tdp1-over CL187 cells): reduced in dese-dependent manner | Top1 protein content (Top1; siRNA-Tdp1 CL187 cells): significantly decreased | Top1 protein content (Top1; wild-type CL187 cells): decreased in PTE treatment group, but neither in dese-dependent and significant manner | IC50 (siRNA-Tdp1 CL187 cells [4]): 34.2 ± 7.33 µM
